Assay [1] deals with human foreskin fibroblast cells (HFF). In words: XTT cell proliferation assay, HFF. It is filed as cell-based. The settings on record: for IC50: Table 2, XTT, non-cancerous cells; for ratio of IC50s against none cancerous cells (HFF) to the cancerous cell line (A2780): ratio of XTT IC50s. The method, then: (§1) (2,3-bis-(2-methoxy-4-nitro-5-sulfophenyl)-2H-tetrazolium-5-carboxanilide) (XTT) assay was used as previously described to evaluate the cytotoxicity of the different Cisplatin derivatives. Briefly, cells (1.5 × 10^4) were plated in RPMI 1640 medium using 96-well plates for 24 h, and then treated for an additional 72 h with the different Cisplatin derivatives. A total of 50 μl of XTT solution were added to each well and incubated for 3 h at 37 °C. The optical density was measured by a multi-well plate spectrophotometer at 450 nanometers with a references’ wavelength of 630 nm. The concentrations inhibiting cell proliferation by 50 % (IC50s) of all tested derivatives were calculated. The experiment was performed in triplicate, and standard deviations were also calculated.
In general terms: Tetrazolium dyes change colour on reduction, which living cells bring about.

Assay [2] deals with PARP cleavage in A2780 cells. The experiment in a line: Apoptosis assay: PARP cleavage by immunoblot, A2780. It is filed as cell-based, human. The settings on record: 30 h treatment. As to the method:
(§2) To monitor apoptosis potential of Cisplatin derivatives we followed cleavage of poly ADP ribose polymerase (PARP) protein [18]. Briefly, cells (2 × 10^5 cells/ml) were treated with Cisplatin derivatives for the indicated time. Cells were collected, washed once with cold PBS, and lysed in buffer [10 mMTris-HCl (pH 7.4), 100 mMNaCl, 1 mM EDTA, 1 mM EGTA, 1 mM NaF, 20 mM Na4P2O7, 2 mM Na3VO4, 1 % Triton x-100, 10 % Glycerol, 0.1 % sodium dodecyl sulfate (SDS), 0.5 % deoxycholate, 1 mM phenylmethylsulfonyl fluoride (PMSF), for 30 min at 4 °C. Cell lysate supernatants (40 μg protein/each) were resolved on 8 % SDS-polyacrylamide gel electrophoresis, transferred to nitrocellulose membranes, and analyzed by immune-blotting with an anti-cleaved PARP antibody (Cell signaling technology, USA ). Anti α-tubulin antibody (Santa Cruz Co., CA, USA) was used as a loading control.
Background: A western blot detects proteins with antibodies after separation by electrophoresis.

For a further assay, the system named is A2780cisR cells. In words: Clonigenicity assay (soft agar), A2780cisR. In kind it is cell-based, human. The settings on record: 2 weeks, read-out: IC50 of clonigenicity inhibition A2780cisR. As to the method:
(§3) Clonigenicity assay was performed as previously describe. Briefly, cells (1 × 10^4) in 1 ml RPMI 10 % FBS medium were diluted in 1 ml of 0.6 % agar to give a final agar concentration of 0.3 % agar. The cells-agar mixture was poured over a hardened agar base in wells of 12-well plates and allowed to solidify. Once the top layer solidified, 1 ml of medium containing different treatments was placed on top to keep the agar moist. The cells were grown at 37 °C in a 5 % CO2 humidified atmosphere until colonies were visible (2 weeks). The plates were stained for 4 h with 5 mg/ml 3-(4,5-dimethylthiazol-2-yl)-2,5-diphenyltetrazolium bromide (MTT), and the dye was extracted with 1 ml solubilization buffer (20 % SDS, 50 % N,N-dimethyl-formamide, 25 mM HCL) for 24 h. The optical density was measured at 570 nm wavelength with a reference wavelength of 630 nm.

Assay [3] deals with human embryonic kidney cell line 293 T (HEK293T). In words: XTT cell proliferation assay, HEK293T. The settings on record: for IC50: Table 2, XTT, non-cancerous cells; for selectivity: potency against A2780 compared to HEK293T: ratio of XTT IC50s. It is filed as cell-based. As to the method:
as §1

Assay [4] deals with human embryonic kidney cell line 293A (HEK293A). In words: XTT cell proliferation assay, HEK293A. It is filed as cell-based. The settings on record: for IC50: Table 2, XTT, non-cancerous cells; for selectivity: potency against A2780 compared to HEK293A: ratio of XTT IC50s. The method, then:
as §1

For assay [5], the system named is cleaved PARP in A2780cisR cells. The experiment in a line: PathScan cleaved PARP (Asp214) sandwich ELISA, A2780cisR. It is filed as cell-based, human. The settings on record: 30 h. The method, then: Cell lysates prepared from treated ovarian cancer cells (30 h) were used for quantitative measurement of cleaved PARP according to manufacturer’s instructions (Cell signaling technology, USA). In our experiments, 20 μg of total lysate proteins from each sample were utilized.
(In an ELISA, binding on a coated surface is turned into a signal by an enzyme label.)

For assay [6], the system named is A2780cisR (Cisplatin resistant ovarian cancer cells). The experiment in a line: XTT cell proliferation assay, A2780cisR. In kind it is cell-based, human. The settings on record: for IC50: Table 1, XTT, 72 h treatment, read-out: IC50 anti-proliferative activity A2780cisR; for increased anti-proliferative potency compared to Cisplatin, A2780cisR: ratio of IC50s vs Cisplatin. As to the method: as §1

Assay [7] has as its system PARP cleavage in A2780cisR cells. The experiment in a line: Apoptosis assay: PARP cleavage by immunoblot, A2780cisR. It is filed as cell-based, human. The settings on record: for concentration causing significant PARP cleavage, A2780cisR: 30 h treatment. As to the method: as §2
The test system of assay [8] is A2780 (Cisplatin sensitive ovarian cancer cells). In words: XTT cell proliferation assay, A2780. The settings on record: for IC50: XTT. It is filed as cell-based, human. The method, then: as §1
In assay [9] the test system is K562; chronic myelogenous leukemia (CML) cell lines. In words: XTT cell proliferation assay, K562. In kind it is cell-based. The settings on record: for IC50: Table 1, XTT, 72 h treatment, read-out: IC50 anti-proliferative activity K562; for enhanced anti-CML activity compared to Cisplatin, K562: ratio of IC50s vs Cisplatin. The method, then:
as §1

The subject of another assay is A2780 cells. The experiment in a line: Clonigenicity assay (soft agar), A2780. The settings on record: for IC50: soft agar, 2 weeks, read-out: IC50 of clonigenicity inhibition A2780; for clonigenicity IC50s values lower than Cisplatin: ovarian cancer cell lines tested (A2780, A2780cisR). In kind it is cell-based, human. The method, then: as §3
Where [10] appears, read: Table 1, 72 h treatment, read-out: IC50 anti-proliferative activity A2780.

Values joined by “and” are separate entries in the source; they are usually repeats but may differ in a detail not shown here. Identical values can stand only once. Like-named read-outs stand apart in the source and are kept apart here.

`N.N.[Cl][Pt][Cl]` [Cisplatin, cis-Diamminedichloroplatinum (II)]: the 50% inhibitory concentration (IC50) (in general, the concentration that inhibits the measured activity by half) in assay [1] came out at 84 µM; with A2780cisR cells it was 4.2 µM; in assay [3], 3.2 µM; in [4] it was 16.3 µM; in assay [6], 19.2 µM; in assay [8] (setting [10]) it was 1.3 µM. Moreover, the IC50 in assay [8] (Table 2, read-out: IC50 A2780) worked out at 1.3 µM; in assay [9] it was 5.2 µM; with A2780 cells it was 2.3 µM. In addition, the “ratio of IC50s against none cancerous cells (HFF) to the cancerous cell line (A2780)” value (“ratio of IC50s” for short) in assay [1] turned out to be 63. Also, the “concentration causing significant PARP cleavage, A2780” value in [2] was 25 µM. In addition, the “increase in levels of cleaved PARP compared to untreated sample” value (shortened to “increase in levels of cleaved PARP”) in [5] (25 microM) is 2.4 fold. In addition, the “PARP cleavage in A2780cisR” value in [7] (30 h, concentrations below 100 microM) was “very minimal cleavage of PARP”.

In the case of `CCCCCCCCCCCC(=O)[O][Pt]([NH2])([NH2])([Cl])([Cl])[O]C(=O)CCCCCCCCCCC` [RJY6, Cis, cis, trans-[diamminedichloro-bis-lauratoplatinum(IV)]], the concentration for half-maximal inhibition (IC50) amounted to 82 µM in [1]; 0.013 µM with A2780cisR cells; 11.8 µM in assay [3]; 17.3 µM in [4]; 3.3 µM in [6]; 0.7 µM in assay [8] (setting [10]). For the same compound, the IC50 in assay [8] (Table 2, read-out: IC50 A2780) was determined as 0.7 µM; in assay [9], 1.3 µM; in the assay on A2780 cells it was 0.015 µM. The “ratio of IC50s” value in assay [1] was 117 and 117.2. Moreover, in assay [2], the “concentration causing significant PARP cleavage, A2780” value is on record as “above 25 microM”. Besides, the “selectivity: potency against A2780 compared to HEK293T” value in [3] is 16 fold. The “selectivity: potency against A2780 compared to HEK293A” value in assay [4] is on record as 24 fold. The “increase in levels of cleaved PARP” value in assay [5] (1 microM) came to 2 fold; in assay [5] (5 microM) it was 3 fold; in assay [5] (25 microM) it was 21 fold. In assay [6], the “increased anti-proliferative potency compared to Cisplatin, A2780cisR” value is reported as 5-6 fold. Moreover, the “concentration causing significant PARP cleavage, A2780cisR” value in [7] is listed as “above 25 microM”. Also, the “enhanced anti-CML activity compared to Cisplatin, K562” value in [9] worked out at 4 folds. Further, in the assay with A2780 cells, the “clonigenicity IC50s values lower than Cisplatin” value is listed as 20–30 folds.

Regarding `CCCCCCCC/C=C\CCCCCCCC(=O)[O][Pt]([NH2])([NH2])([Cl])([Cl])[O]C(=O)CCCCCCC/C=C\CCCCCCCC` [RJY3], the IC50 was 15 µM in assay [6], above 20 µM in assay [8] (setting [10]), 9.4 µM in [9] and 0.07 µM in the assay with A2780 cells.

As for `O=C1[O][Pt]2([NH][C@@H]3CCCC[C@H]3[NH]2)[O]C1=O` [Oxaliplatin, reference compound], the half-maximal inhibitory concentration (IC50) came out at 1.6 µM in the assay with A2780cisR cells; 15.5 µM in [6]; 12.7 µM in assay [8] (setting [10]); 3.2 µM in [9]; 0.18 µM with A2780 cells.

On to `CCCCCCCC(=O)[O][Pt]([NH2])([NH2])([Cl])([Cl])[O]C(=O)CCCCCCC` [RJY13, Cis, cis, trans-[diamminedichloro-bis-octanoatoplatinum (IV)]], for which the half-maximal inhibitory concentration (IC50) in assay [1] stood at 2.4 µM; in the assay on A2780cisR cells, 0.01 µM; in assay [3], 0.5 µM; in assay [4] it was 0.7 µM; in assay [6], 0.57 µM; in assay [8] (setting [10]), 0.08 µM. The IC50 in assay [8] (Table 2, read-out: IC50 A2780) came out at 0.08 µM; in assay [9], 0.7 µM; with A2780 cells it was 0.01 µM. In addition, in assay [1], the “ratio of IC50s” value was 30. Further, the “concentration causing significant PARP cleavage, A2780” value in assay [2] turned out to be 5 µM. Moreover, the “selectivity: potency against A2780 compared to HEK293T” value in [3] is on record as “about 10 fold”. The “selectivity: potency against A2780 compared to HEK293A” value in assay [4] is recorded as “about 10 fold”. In addition, the “increase in levels of cleaved PARP” value in assay [5] (1 microM) came to 4 fold; in [5] (5 microM) it was 34 fold; in assay [5] (25 microM) it was 37 fold. Besides, the “increased anti-proliferative potency compared to Cisplatin, A2780cisR” value in [6] was found to be 33 fold. Further, the “concentration causing significant PARP cleavage, A2780cisR” value in assay [7] came out at 5 µM. In assay [8] (ratio of IC50s vs Cisplatin), the “increased anti-proliferative potency compared to Cisplatin, A2780” value turned out to be 16 fold. Also, the “enhanced anti-CML activity compared to Cisplatin, K562” value in assay [9] worked out at 7 folds. For the same compound, the “clonigenicity IC50s values lower than Cisplatin” value with A2780 cells is given as 20–30 folds.

For `N.N.O=C([O-])C1(C(=O)[O-])CCC1.[Pt+2]` [Carboplatin, reference compound], the concentration for half-maximal inhibition (IC50) in assay [3] came out at 45 µM; in assay [4], 105 µM; in assay [6], 109 µM; in [8] (setting [10]), 16.8 µM; in [8] (Table 2, read-out: IC50 A2780) it was 16.8 µM.

Source of the values: paper PMC4763415, “Platinum (IV)-fatty acid conjugates overcome inherently and acquired Cisplatin resistant cancer cell lines: an in-vitro study” (BMC Cancer, 2016).
